{"source": "ChEMBL document CHEMBL1687752", "about": "“Impact of antifungal prophylaxis on colonization and azole susceptibility of Candida species” (2009)", "type_in_all_cases": "functional", "key": {"[1]": {"tested_on": "Pichia kudriavzevii", "experiment": "Antifungal activity against 8 days cultured Candida krusei isolated from neutropenic subject with AML or MDS pharynx after 12 days of prophylaxis by broth microdilution method"}, "[2]": {"tested_on": "Nakaseomyces glabratus", "experiment": "Antifungal activity against 88 days cultured Candida glabrata isolated from HSCT recipient with acute or chronic GVHD mouth receiving antifungal therapy for 75 days after 33 days of prophylaxis by broth microdilution method"}, "[3]": {"tested_on": "Nakaseomyces glabratus", "experiment": "Antifungal activity against 25 days cultured Candida glabrata isolated from invasive fungal infected subject blood receiving antifungal therapy for 25 days after 3 days of prophylaxis by broth microdilution method"}, "[4]": {"tested_on": "Candida tropicalis", "experiment": "Antifungal activity against -3 days cultured Candida tropicalis isolated from neutropenic subject with AML or MDS stool receiving antifungal therapy for 45 days after 24 days of prophylaxis by broth microdilution method"}, "[5]": {"tested_on": "Candida tropicalis", "experiment": "Antifungal activity against 2 days cultured Candida tropicalis isolated from neutropenic subject with AML or MDS stool receiving antifungal therapy for 45 days after 24 days of prophylaxis by broth microdilution method"}, "[6]": {"tested_on": "Candida tropicalis", "experiment": "Antifungal activity against 2 days cultured Candida tropicalis isolated from neutropenic subject with AML or MDS pharynx receiving antifungal therapy for 45 days after 24 days of prophylaxis by broth microdilution method"}, "[7]": {"tested_on": "Candida tropicalis", "experiment": "Antifungal activity against 9 days cultured Candida tropicalis isolated from neutropenic subject with AML or MDS stool receiving antifungal therapy for 45 days after 24 days of prophylaxis by broth microdilution method"}, "[8]": {"tested_on": "Nakaseomyces glabratus", "experiment": "Antifungal activity against 62 days cultured Candida glabrata isolated from HSCT recipient with acute or chronic GVHD mouth receiving antifungal therapy for 143 days after 116 days of prophylaxis by broth microdilution method"}, "[9]": {"tested_on": "Nakaseomyces glabratus", "experiment": "Antifungal activity against 111 days cultured Candida glabrata isolated from HSCT recipient with acute or chronic GVHD mouth receiving antifungal therapy for 143 days after 116 days of prophylaxis by broth microdilution method"}, "[10]": {"tested_on": "Nakaseomyces glabratus", "experiment": "Antifungal activity against 15 days cultured Candida glabrata isolated from HSCT recipient with acute or chronic GVHD mouth receiving antifungal therapy for 168 days after 113 days of prophylaxis by broth microdilution method"}, "[11]": {"tested_on": "Pichia kudriavzevii", "experiment": "Antifungal activity against 6 days cultured Candida krusei isolated from neutropenic subject with AML or MDS stool receiving antifungal therapy for 19 days after 6 days of prophylaxis by broth microdilution method"}, "[12]": {"tested_on": "Pichia kudriavzevii", "experiment": "Antifungal activity against 16 days cultured Candida krusei isolated from neutropenic subject with AML or MDS stool receiving antifungal therapy for 19 days after 6 days of prophylaxis by broth microdilution method"}, "[13]": {"tested_on": "Candida albicans", "experiment": "Antifungal activity against Candida albicans isolated from HSCT recipients with acute or chronic GVHD prior to initiation of posaconazole therapy by broth microdilution method"}, "[14]": {"tested_on": "Candida albicans", "experiment": "Antifungal activity against Candida albicans isolated from HSCT recipients with acute or chronic GVHD prior to initiation of posaconazole therapy assessed as maximum MIC by broth microdilution method"}, "[15]": {"tested_on": "Candida albicans", "experiment": "Antifungal activity against Candida albicans isolated from neutropenic subjects with AML or MDS prior to initiation of posaconazole therapy assessed as maximum MIC by broth microdilution method"}, "[16]": {"tested_on": "Nakaseomyces glabratus", "experiment": "Antifungal activity against Candida glabrata isolated from neutropenic subjects with AML or MDS receiving posaconazole assessed as maximum MIC by broth microdilution method"}, "[17]": {"tested_on": "Candida albicans", "experiment": "Antifungal activity against Candida albicans isolated from HSCT recipients with acute or chronic GVHD prior to initiation of fluconazole therapy by broth microdilution method"}, "[18]": {"tested_on": "Nakaseomyces glabratus", "experiment": "Antifungal activity against Candida glabrata isolated from HSCT recipients with acute or chronic GVHD prior to initiation of fluconazole therapy by broth microdilution method"}, "[19]": {"tested_on": "Nakaseomyces glabratus", "experiment": "Antifungal activity against Candida glabrata isolated from HSCT recipients with acute or chronic GVHD receiving fluconazole assessed as maximum MIC by broth microdilution method"}, "[20]": {"tested_on": "Pichia kudriavzevii", "experiment": "Antifungal activity against Candida krusei isolated from HSCT recipients with acute or chronic GVHD receiving fluconazole assessed as maximum MIC by broth microdilution method"}, "[21]": {"tested_on": "Candida albicans", "experiment": "Antifungal activity against Candida albicans isolated from neutropenic subjects with AML or MDS prior to initiation of fluconazole therapy by broth microdilution method"}, "[22]": {"tested_on": "Candida albicans", "experiment": "Antifungal activity against Candida albicans isolated from neutropenic subjects with AML or MDS receiving fluconazole assessed as maximum MIC by broth microdilution method"}, "[23]": {"tested_on": "Pichia kudriavzevii", "experiment": "Antifungal activity against Candida krusei isolated from neutropenic subjects with AML or MDS prior to initiation of fluconazole therapy assessed as maximum MIC by broth microdilution method"}, "[24]": {"tested_on": "Candida albicans", "experiment": "Antifungal activity against Candida albicans isolated from HSCT recipient 262 with acute or chronic GVHD mouth receiving antifungal drug after 115 days prophylaxis by broth microdilution method"}, "[25]": {"tested_on": "Candida albicans", "experiment": "Antifungal activity against Candida albicans isolated from HSCT recipient 301 with acute or chronic GVHD mouth receiving antifungal drug after 114 days prophylaxis by broth microdilution method"}, "[26]": {"tested_on": "Nakaseomyces glabratus", "experiment": "Antifungal activity against Candida glabrata isolated from neutropenic subject 1491 with AML or MDS pharynx receiving antifungal drug after 23 days prophylaxis by broth microdilution method", "conditions": "552 h"}, "[27]": {"tested_on": "Nakaseomyces glabratus", "experiment": "Antifungal activity against Candida glabrata isolated from HSCT recipient 186 with acute or chronic GVHD mouth after 112 days prophylaxis by broth microdilution method"}, "[28]": {"tested_on": "Nakaseomyces glabratus", "experiment": "Antifungal activity against Candida glabrata isolated from HSCT recipient 186 with acute or chronic GVHD mouth receiving antifungal drug after 112 days prophylaxis by broth microdilution method"}, "[29]": {"tested_on": "Nakaseomyces glabratus", "experiment": "Antifungal activity against Candida glabrata isolated from HSCT recipient 270 with acute or chronic GVHD mouth after 108 days prophylaxis by broth microdilution method"}, "[30]": {"tested_on": "Candida albicans", "experiment": "Antifungal activity against Candida albicans isolated from HSCT recipient 031 with acute or chronic GVHD mouth after 109 days prophylaxis by broth microdilution method"}, "[31]": {"tested_on": "Candida albicans", "experiment": "Antifungal activity against Candida albicans isolated from HSCT recipient 462 with acute or chronic GVHD mouth after 112 days prophylaxis by broth microdilution method"}, "[32]": {"tested_on": "Candida albicans", "experiment": "Antifungal activity against Candida albicans isolated from HSCT recipient 462 with acute or chronic GVHD mouth receiving antifungal drug after 112 days prophylaxis by broth microdilution method"}, "[33]": {"tested_on": "Candida albicans", "experiment": "Antifungal activity against Candida albicans isolated from HSCT recipient 042 with acute or chronic GVHD mouth after 112 days prophylaxis by broth microdilution method"}, "[34]": {"tested_on": "Candida albicans", "experiment": "Antifungal activity against Candida albicans isolated from HSCT recipient 042 with acute or chronic GVHD mouth receiving antifungal drug after 112 days prophylaxis by broth microdilution method"}, "[35]": {"tested_on": "Candida albicans", "experiment": "Antifungal activity against Candida albicans isolated from HSCT recipient 928 with acute or chronic GVHD mouth after 112 days prophylaxis by broth microdilution method"}, "[36]": {"tested_on": "Nakaseomyces glabratus", "experiment": "Antifungal activity against Candida glabrata isolated from HSCT recipient 497 with acute or chronic GVHD mouth after 114 days prophylaxis by broth microdilution method"}, "[37]": {"tested_on": "Nakaseomyces glabratus", "experiment": "Antifungal activity against Candida glabrata isolated from HSCT recipient 497 with acute or chronic GVHD mouth receiving antifungal drug after 114 days prophylaxis by broth microdilution method"}, "[38]": {"tested_on": "Nakaseomyces glabratus", "experiment": "Antifungal activity against Candida glabrata isolated from HSCT recipient 807 with acute or chronic GVHD mouth receiving antifungal drug after 114 days prophylaxis by broth microdilution method"}, "[39]": {"tested_on": "Nakaseomyces glabratus", "experiment": "Antifungal activity against Candida glabrata isolated from HSCT recipient 491 with acute or chronic GVHD mouth receiving antifungal drug after 112 days prophylaxis by broth microdilution method"}}, "data": [{"compound": "CC[C@@H]([C@H](C)O)n1ncn(-c2ccc(N3CCN(c4ccc(OC[C@@H]5CO[C@@](Cn6cncn6)(c6ccc(F)cc6F)C5)cc4)CC3)cc2)c1=O", "note": "[POSACONAZOLE]", "values": [{"measurement": "MIC", "setting": "[1]", "value": 0.125, "unit": "µg/mL"}, {"measurement": "MIC", "setting": "[2]", "value": 2, "unit": "µg/mL"}, {"measurement": "MIC", "setting": "[3]", "value": 0.5, "unit": "µg/mL"}, {"measurement": "MIC", "setting": "[4]", "value": "< 0.015", "unit": "µg/mL"}, {"measurement": "MIC", "setting": "[5]", "value": "< 0.015", "unit": "µg/mL"}, {"measurement": "MIC", "setting": "[6]", "value": "< 0.015", "unit": "µg/mL"}, {"measurement": "MIC", "setting": "[7]", "value": "< 0.015", "unit": "µg/mL"}, {"measurement": "MIC", "setting": "[8]", "value": 4, "unit": "µg/mL"}, {"measurement": "MIC", "setting": "[9]", "value": 4, "unit": "µg/mL"}, {"measurement": "MIC", "setting": "[10]", "value": 2, "unit": "µg/mL"}, {"measurement": "MIC", "setting": "[11]", "value": 0.125, "unit": "µg/mL"}, {"measurement": "MIC", "setting": "[12]", "value": 0.25, "unit": "µg/mL"}, {"measurement": "MIC50", "setting": "[13]", "value": 0.016, "unit": "µg/mL"}, {"measurement": "MIC90", "setting": "[13]", "value": 0.06, "unit": "µg/mL"}, {"measurement": "MIC", "setting": "[14]", "value": 16, "unit": "µg/mL"}, {"measurement": "MIC", "setting": "[15]", "value": 0.06, "unit": "µg/mL"}, {"measurement": "MIC", "setting": "[16]", "value": 8, "unit": "µg/mL"}, {"measurement": "MIC50", "setting": "[17]", "value": 0.016, "unit": "µg/mL"}, {"measurement": "MIC90", "setting": "[17]", "value": 0.03, "unit": "µg/mL"}, {"measurement": "MIC50", "setting": "[18]", "value": 1, "unit": "µg/mL"}, {"measurement": "MIC90", "setting": "[18]", "value": 8, "unit": "µg/mL"}, {"measurement": "MIC", "setting": "[19]", "value": 16, "unit": "µg/mL"}, {"measurement": "MIC", "setting": "[20]", "value": 1, "unit": "µg/mL"}, {"measurement": "MIC50", "setting": "[21]", "value": 0.015, "unit": "µg/mL"}, {"measurement": "MIC90", "setting": "[21]", "value": 0.015, "unit": "µg/mL"}, {"measurement": "MIC", "setting": "[22]", "value": 8, "unit": "µg/mL"}, {"measurement": "MIC", "setting": "[23]", "value": 0.25, "unit": "µg/mL"}, {"measurement": "MIC", "setting": "[24]", "value": "< 0.015", "unit": "µg/mL"}, {"measurement": "MIC", "setting": "[25]", "value": 0.03, "unit": "µg/mL"}, {"measurement": "MIC", "setting": "[26]", "value": 8, "unit": "µg/mL"}, {"measurement": "MIC", "setting": "[27]", "value": 0.25, "unit": "µg/mL"}, {"measurement": "MIC", "setting": "[28]", "value": 2, "unit": "µg/mL"}, {"measurement": "MIC", "setting": "[29]", "value": 0.06, "unit": "µg/mL"}, {"measurement": "MIC", "setting": "[30]", "value": "< 0.015", "unit": "µg/mL"}, {"measurement": "MIC", "setting": "[31]", "value": "< 0.015", "unit": "µg/mL"}, {"measurement": "MIC", "setting": "[32]", "value": 0.06, "unit": "µg/mL"}, {"measurement": "MIC", "setting": "[33]", "value": "< 0.015", "unit": "µg/mL"}, {"measurement": "MIC", "setting": "[34]", "value": "< 0.015", "unit": "µg/mL"}, {"measurement": "MIC", "setting": "[35]", "value": "< 0.015", "unit": "µg/mL"}, {"measurement": "MIC", "setting": "[36]", "value": 0.5, "unit": "µg/mL"}, {"measurement": "MIC", "setting": "[37]", "value": 2, "unit": "µg/mL"}, {"measurement": "MIC", "setting": "[38]", "value": "> 8", "unit": "µg/mL"}, {"measurement": "MIC", "setting": "[39]", "value": 2, "unit": "µg/mL"}]}]}
